Measured values: US20050256132A1, “Use of ER selective NF-kB inhibitors for the treatment of sepsis” (priority 2003, published 2005)
“And” between values parts separate entries of the source, which are not always exact repeats. Equal entries are not always repeated. Where two headings read alike, the source gives them in different places. Values belong to the compound of their own block, whether it stands above or below them.

Columns and labels:
ER/IL-6 = test: Endothelial Cell ER/IL-6 Assay, IL-6 promoter luciferase (Table 2); type: cell-based, human; details: ERα infected HAECT-1 cells, IL-1β; for IC50: read-out: IL6 luc IC50; for Emax: read-out: IL6 luc % Efficacy
Method: T-175 flasks of 100% confluent HAECT-1 cells (immortalized human aortic endothelial cells) were washed with 8 ml of HBSS (HEPES buffered saline solution) and infected for fours hours with 6 ml of a 1:10 dilution of Ad5-wt-hERα virus (an adenovirus transfection vector that mediates CMV promoter driven expression of human ERα) in phenol red free Endothelial Cell Basal medium (Clonetics, San Diego, Calif., Catalog # CC-3129) containing 0.25% bovine serum albumin (EDM-BSA). After four hours, cells were washed with EDM-BSA and incubated overnight in the same medium. Following overnight incubation, cells were washed with EDM-BSA and infected for 2 hours with 6 ml of a 1:10 dilution of Ad5-3x(NFκB).Luc virus (Adenovirus luciferase expression vector driven by three repeats of the MHC NFκb sites 5′ to the thymidine kinase promoter) in EDM-BSA. After two hours, cells were washed and incubated at 34° C. for one hour. Cells were then washed, trypsinized, counted, and resuspended in 95% FBS/5% dimethylsulfoxide at a concentration of […], frozen as 1 or 5 ml aliquots in cryo-vials and stored at −150° C. Control (no ER infection) cells were processed as above without Ad5-wt-hERα virus infection.
ERα infected HAECT-1 cells or control cells were thawed, diluted 42× in warm EBM-BSA, plated into 96-well plates at 0.1 ml/well and incubated for 4 hours at 34° C. Test compounds were added to the cells at 2× stocks in EBM-BSA containing 2 ng/ml IL-1β Ad6-IL-6(1250 bp).Luc virus and plates were returned to the incubator (34° C.). After […], cells were lysed with 50 μl of Promega Cell Culture Lysis reagenet for about 5 minutes at room temperature on a shaker. After lysing, 15 μl of lysate is transferred to luminometer plates for luciferase determination. Luciferase activity is evaluated using a Perkin Elmer Victor2 1420 multilabel counter. Creatine kinase was determined from the rate of increase in A340 following addition of 100 μl of CK assay reagent (Sigma catalog no. 47-10) to the remainder of the cell lysate.
For IC50 and EC50 calculations, mean IL-6, luciferase or CK values versus log10 of the compound concentration were fitted to a four parameter logistic equation. The IC50/EC50 value, ‘Hill slope,’ upper and lower limits of the curve were iteratively estimated.

melting point: 115 to 118 °C
Compound: CC(C)(C)OC(=O)C(C#N)C(c1ccccc1OC(F)(F)F)c1cccc2ccccc12 (stereo not shown)

melting point: 206 to 208 °C
Compound: COc1ccccc1[C@H](c1cccc2ccccc12)[C@@](C)(C#N)C(=O)N1CCC(O)(c2ccc(Br)cc2)CC1

melting point: 186 to 188 °C
Compound: CCOC(=O)C(C)(C#N)C(c1cccc2ccccc12)c1cccc2ccccc12 (stereo not shown)

melting point: 104 to 105 °C
Compound: COc1ccccc1[C@H](c1cccc2ccccc12)[C@@](C)(C#N)C(=O)N1CCN(c2cccc(C)c2)CC1

melting point: 186 to 188 °C
Compound: COc1cc(OC)cc(N2CCN(C(=O)[C@](C)(C#N)[C@H](c3ccccc3OC)c3cccc4ccccc34)CC2)c1

melting point: 147 to 148 °C
Compound: COc1cccc(N2CCN(C(=O)[C@](C)(C#N)[C@H](c3ccccc3OC)c3cccc4ccccc34)CC2)c1

IC50 (ER/IL-6; Homo sapiens, HAECT1): 12 nM
Compound: COC(=O)[C@@](C#N)(CCN1CCOCC1)[C@H](c1ccccc1OC)c1cccc2ccccc12 (relative stereo) [Example 147, Methyl (2S*)-2-cyano-2-[(S*)-(2-methoxyphenyl)(1-naphthyl)methyl]-4-morpholin-4-ylbutanoate]

IC50 (ER/IL-6; Homo sapiens, HAECT1): 257 nM
Compound: CCN(CC)CC[C@](C#N)(C(=O)OC)[C@H](c1ccccc1OC)c1cccc2ccccc12 (relative stereo) [Example 148, Methyl (2S*)-2-cyano-4-(diethylamino)-2-[(S*)-(2-methoxyphenyl)(1-naphthyl)methyl]butanoate]

IC50 (ER/IL-6; Homo sapiens, HAECT1): 33 nM
Compound: COc1ccccc1[C@H](c1cccc2ccccc12)[C@@](C)(C#N)C(=O)N1CC=C(c2ccc(F)cc2)CC1 [Example 137, (2S)-3-[4-(4-fluorophenyl)-3,6-dihydropyridin-1(2H)-yl]-2-[(S)-(2-methoxyphenyl)(1-naphthyl)methyl]-2-methyl-3-oxopropanenitrile]
Emax (ER/IL-6; Homo sapiens, HAECT1): 163%

IC50 (ER/IL-6; Homo sapiens, HAECT1): 273 nM
Compound: COCCOC[C@@](C#N)(C(=O)OC)[C@@H](c1ccccc1OC)c1cccc2ccccc12 [Example 159, Methyl (2R,3R)-2-cyano-2-[(2-methoxyethoxy)methyl]-3-(2-methoxyphenyl)-3-(1-naphthyl)propanoate]
Emax (ER/IL-6; Homo sapiens, HAECT1): 95%

IC50 (ER/IL-6): 37 nM
Compound: COCCOC[C@@](C#N)(C(=O)N1CCC(c2cccc(C(F)(F)F)c2)CC1)[C@@H](c1ccccc1OC)c1cccc2ccccc12 [Example 168, (RR,SS)-2-[(2-Methoxyethoxy)methyl]-3-(2-methoxyphenyl)-3-(1-naphthyl)-2-({4-[3-(trifluoromethyl)phenyl]piperidin-1-yl}carbonyl)propanenitrile]
IL6 luc % Efficacy (ER/IL-6): 68%

IC50 (ER/IL-6): 337 nM
Compound: COCCOC[C@@](C#N)(C(=O)N1CCN(c2cnccn2)CC1)[C@@H](c1ccccc1OC)c1cccc2ccccc12 [Example 171, (RR,SS)-2-[(2-methoxyethoxy)methyl]-3-(2-methoxyphenyl)-3-(1-naphthyl)-2-[(4-pyrazin-2-ylpiperazin-1-yl)carbonyl]propanenitrile]
IL6 luc % Efficacy (ER/IL-6): 54%

IC50 (ER/IL-6): 151 nM
Compound: COc1ccccc1[C@@H](c1cccc2ccccc12)[C@@](C#N)(Cc1cccnc1)C(=O)OC(C)(C)C [Example 179, tert-Butyl (RR,SS)-2-cyano-3-(2-methoxyphenyl)-3-(1-naphthyl)-2-(pyridin-3-ylmethyl)propanoate]
IL6 luc % Efficacy (ER/IL-6): 128%

IC50 (ER/IL-6): 200 nM
Compound: COCC(C#N)(C(=O)NC(C)(C)C)C(c1ccccc1OC)c1cccc2ccccc12 (stereo not drawn) [Example 180, (RR,SS)-N-(tert-butyl)-2-cyano-2-(methoxymethyl)-3-(2-methoxyphenyl)-3-(1-naphthyl)propanamide]
IL6 luc % Efficacy (ER/IL-6): 119%

IC50 (ER/IL-6): 1400 nM
Compound: COC[C@@](C#N)(C(=O)N1CCN(CCN2CCOCC2)CC1)[C@@H](c1ccccc1OC)c1cccc2ccccc12 [Example 219, (RR,SS)-2-(methoxymethyl)-3-(2-methoxyphenyl)-2-{[4-(2-morpholin-4-ylethyl)piperazin-1-yl]carbonyl}-3-(1-naphthyl)propanenitrile]
IL6 luc % Efficacy (ER/IL-6): 74%

More lines, now with the values behind:

Compound: Cc1cccc(C)c1C(c1cccc2ccccc12)C(C#N)C(=O)OC(C)(C)C (stereo not shown)
melting point: 124 to 128 °C

Compound: COc1ccccc1[C@H](c1cccc2ccccc12)[C@@](C)(C#N)C(=O)N1CCN(CC(=O)N2CCOCC2)CC1
melting point: 201 °C

Compound: COc1ccccc1[C@H](c1cccc2ccccc12)[C@@](C)(C#N)C(=O)N1CCN(C(=O)c2ccco2)CC1
melting point: 193 °C

Compound: COc1ccccc1[C@H](c1cccc2ccccc12)[C@@](C)(C#N)C(=O)N1CCN(CCN2CCOCC2)CC1
melting point: 102 to 103 °C

Compound: COc1ccccc1[C@H](c1cccc2ccccc12)[C@@](C)(C#N)C(=O)N1CCN(c2cccc3c2CCC3)CC1
melting point: 188 to 190 °C

Compound: COc1ccccc1[C@H](c1cccc2ccccc12)[C@@](C)(C#N)C(=O)N1CCN(c2ccc(C)c(C)c2)CC1
melting point: 181 to 183 °C

Compound: COc1ccccc1[C@H](c1cccc2ccccc12)[C@@](C)(C#N)C(=O)N1CCN(c2cccc(Cl)c2)CC1
melting point: 174 to 176 °C

Compound: COc1ccccc1[C@H](c1cccc2ccccc12)[C@@](C)(C#N)C(=O)N1CCN(c2cccc(C)c2C)CC1
melting point: 194 to 195 °C

Compound: COc1ccccc1[C@H](c1cccc2ccccc12)[C@@](C)(C#N)C(=O)N1CCN(c2ccc(Cl)cc2)CC1
melting point: 178 to 180 °C

Compound: COc1ccccc1[C@H](c1cccc2ccccc12)[C@@](C)(C#N)C(=O)N1CCN(c2ccccc2F)CC1
melting point: 145 to 148 °C

Compound: COc1ccccc1[C@H](c1cccc2ccccc12)[C@@](C)(C#N)C(=O)N1CCN(c2ccccc2Cl)CC1
melting point: 145 to 147 °C

Compound: CC(C)(C)OC(=O)C(C#N)C(c1cccc2ccccc12)c1cccc2ccccc12 (stereo not shown)
melting point: 156 to 157 °C

Compound: COc1ccccc1[C@H](c1cccc2ccccc12)[C@@](C)(C#N)C(=O)N1CCC(O)(c2cccc(C(F)(F)F)c2)CC1 [Example 140, (2S)-3-{4-hydroxy-4-[3-(trifluoromethyl)phenyl]piperidin-1-yl}-2-[(S)-(2-methoxyphenyl)(1-naphthyl)methyl]-2-methyl-3-oxopropanenitrile]
Emax (ER/IL-6; Homo sapiens, HAECT1): 125%
IC50 (ER/IL-6; Homo sapiens, HAECT1): 324 nM

Compound: COc1ccccc1C(c1cnc2ccccc2c1)C(C)(C#N)C(=O)N1CCC(c2cccc(C(F)(F)F)c2)CC1 (stereo not shown) [Example 164, 3-(2-Methoxyphenyl)-2-methyl-3-quinolin-3-yl-2-({4-[3-(trifluoromethyl)phenyl]piperidin-1-yl}carbonyl)propanenitrile]
Emax (ER/IL-6; Homo sapiens, HAECT1): 48%
IC50 (ER/IL-6; Homo sapiens, HAECT1): 32 nM

Compound: COCCOC[C@@](C#N)(C(=O)NCC(C)(C)C)[C@@H](c1ccccc1OC)c1cccc2ccccc12 [Example 170, (RR,SS)-2-Cyano-N-(2,2-dimethylpropyl)-2-[(2-methoxyethoxy)methyl]-3-(2-methoxyphenyl)-3-(1-naphthyl)propanamide]
IL6 luc % Efficacy (ER/IL-6): 89%
IC50 (ER/IL-6): 577 nM

Compound: COc1ccccc1[C@@H](c1cccc2ccccc12)[C@@](C#N)(Cc1cccnc1)C(=O)NCC(C)(C)C [Example 176, (RR,SS)-2-cyano-N-(2,2-dimethylpropyl)-3-(2-methoxyphenyl)-3-(1-naphthyl)-2-(pyridin-3-ylmethyl)propanamide]
IL6 luc % Efficacy (ER/IL-6): 71%
IC50 (ER/IL-6): 413 nM

Compound: COC[C@](C#N)(C(=O)N1CCN(C2CCCCC2)CC1)[C@H](c1ccccc1OC)c1cccc2ccccc12 [Example 221, (2S,3S)-3-(4-cyclohexylpiperazin-1-yl)-2-(methoxymethyl)-2-[(2-methoxyphenyl)(1-naphthyl)methyl]-3-oxopropanenitrile]
IL6 luc % Efficacy (ER/IL-6): 159% and 245% and 174%
